Measured values published in US9597274B2, “Peptides and their use in the treatment of skin” (Avon Products, Inc., priority 2015, dated 2017).

Assays:
[1] = tested on: Human dermal fibroblast cells; assay: Secreted hyaluronic acid (HA) in the media (HA Elisa kit) after 48 h peptide treatment; type: cell-based; settings: percent change relative to vehicle control
Procedure: (§1) Human dermal fibroblast cells were grown in a 96 well plate in DMEM media (available from Corning, N.Y.) supplemented with 10% Fetal Bovine Serum (FBS) and L-glutamine (0.07×10^5 cells/plate). After reaching about 75% confluence, cells were transferred into DMEM media without FBS and incubated for 4-6 hours. Next, cells were treated with a peptide at 0.00001%, 0.0001%, 0.001% final concentration in DMEM media without FBS for 48 h. After treatment, the media were collected and cell viability was measured using MTT. The amount of collagen secreted was tested in the media using HTRF human pro-collagen I kit (available from Cisbio Inc., Bedford, Mass.). The amount of secreted Hyaluronic Acid (HA) was tested in the media using HA Elisa kit (available from Corgenix, Broomfield, Colo.).
(§2) The results are summarized in Table 12 below as percent change of pro-collagen I and/or HA production relative to vehicle control (peptide concentrations provided in parentheses) using the following keys: […]

[2] = tested on: Human dermal fibroblast cells; assay: Pro-collagen I secretion into the media (HTRF human pro-collagen I kit) after 48 h peptide treatment; type: cell-based; settings: percent change relative to vehicle control
Procedure: as §1, §2

[3] = peptide tested at 0.00001%, 0.0001%, 0.001%, concentration not given

GDALQPE (listed as Homo sapiens)
Increase in HA Production [1, 3]: 0 (0: <20%) | Increase in Pro-Collagen I Production [2, 3]: 0 (0: <10%)

LENTKRS (listed as Homo sapiens)
Increase in HA Production [1, 3]: 0 (0: <20%) | Increase in Pro-Collagen I Production [2, 3]: 0 (0: <10%)

LRLK (listed as Homo sapiens)
Increase in HA Production ([1]; peptide concentration 0.001%): +(0.001%) (+: 20-50%) | Increase in Pro-Collagen I Production [2, 3]: 0 (0: <10%)

MVV (listed as Homo sapiens)
Increase in HA Production ([1]; peptide concentration 0.0001%): +(0.0001%) (+: 20-50%) | Increase in Pro-Collagen I Production [2, 3]: 0 (0: <10%)

QILSKLRL (listed as Homo sapiens)
Increase in Pro-Collagen I Production ([2]; peptide concentration 0.001%): +(0.001%) (+: 10-30%)

QPED (listed as Homo sapiens)
Increase in HA Production [1, 3]: 0 (0: <20%) | Increase in Pro-Collagen I Production [2, 3]: 0 (0: <10%)
